Test results reported in patent publication US20120148501A1, “RADIOLOGICAL IMAGE ENHANCEMENT WITH TANTALUM CLUSTERS” (priority 2010, published 2012).

What was measured:
[1] = Solubility of purified cluster in saturated aqueous poly(vinyl alcohol) solution; type: physicochemical; conditions: saturated PVA (MW 50k-85k, hydrolyzed), stirred
Source text: The solubility of (Ta6Cl12)Cl2 in an aqueous solution of saturated polyvinyl alcohol) (PVA) was investigated by stirring purified (Ta6Cl12)Cl2 with a solution of saturated PVA (MW-50k-85k, hydrolyzed). […] It appeared that PVA complexes of tantalum clusters were poorly soluble in water.

[2] = Cluster concentration from saturated solutions in a variety of solvents (solubility); type: physicochemical
Procedure: Optical absorbencies at ˜330 and ˜400 nm were used to track cluster concentration in solution. An approximate molar extinction coefficient was determined by dissolving an isolated and purified cluster sample in water and measuring its absorption. […] Early in the study, the highest sample concentration was 30 mM.
Substitutional doping of divalent zinc on trivalent tantalum sites provides for a reduction in the overall cluster charge. A reduction in the overall cluster charge is also attainable by adjusting the redox chemistry of the starting mixture. Target materials include (Ta6Cl12)Cl2, (Ta6Br12)Cl2, […], (Ta6Br12)Br2, (Ta6I12)I2, (Ta6Cl11O)Cl2, (Ta6Cl11S)CI2, and (Ta5ZnCl12)Cl2. […] These compositions were targeted to elicit materials with enhanced solubility or molecular handles that could be leveraged to further enhance the solubility. […] In the table below, EtOH stands for ethyl alcohol, EG stands for ethylene glycol, PS80 stands for Polysorbate 80, DMSO stands for dimethyl sulfoxide, and EDTA stands for ethylenediaminetetraacetic acid.
The solubility of (Ta6Cl12)Cl2 in an aqueous solution of saturated polyvinyl alcohol) (PVA) was investigated by stirring purified (Ta6Cl12)Cl2 with a solution of saturated PVA (MW-50k-85k, hydrolyzed).

[3] = Procedure: An ultrapurified tantalum cluster of formula (Ta6Cl12)Cl2 (Ultra Purified Ta Ta:TaCl5=1.2) was dissolved in water at a concentration of 355 mM, and in ethylene glycol at a concentration of 592 mM. The resulting water solutions were subjected to radiography to gauge their X-ray absorption characteristics. The samples were loaded into 2 mL polypropylene screw cap tubes with a 1 cm inner diameter. These samples were imaged alongside four calibration standards: 1) aluminum step wedge, 2) polycarbonate step wedge, 3) tantalum foils from 0.0127 to 0.5 mm thick, and 4) a water dilution series containing from 0 to 100% by volume of GE Healthcare's iodinated contrast agent, Visipaque, that contains 320 mg I/mL, in the same 2 mL tubes. Images were collected on a GE Healthcare OEC 9900 Elite digital X-ray Imaging System with a Tri-mode Image Intensifier at 50 KeV with filament currents varied from 0.4 to 9.0 mA. FIG. 2 below is a characteristic image of candidate aqueous samples (first two samples from the left) from the left, marked A and B) alongside calibration samples.
FIG. 3 is imaged through 8 cm of water serving as a low X-ray energy filter and simulating an arm or leg phantom to produce clinically equivalent images. […]

(Ta6Cl12)Cl2
Solubility in aqueous solution of saturated poly(vinyl alcohol) [1]: most of the color was lost as a deep green precipitate formed

(Ta6Cl12)Cl2 [Ta Red, Ta:TaCl5=1.2]
Cluster concentration from saturated solution, 5% EDTA [2]: 12 mM
Cluster concentration from saturated solution, DMSO [2]: 2 mM
Cluster concentration from saturated solution, H2O [2]: 59 mM

(Ta6Cl12)Cl2 [Ultra purified Ta Red]
Remaining soluble cluster X-ray absorption, as equivalent Visipaque calibration solution [3]: ~37.5%
Remaining soluble cluster X-ray absorption, as equivalent tantalum foil stack thickness [3]: ~0.0889 mm
Cluster concentration from saturated solution, EG [2]: 592 mM
Cluster concentration from saturated solution, H2O [2]: 355 mM
